Laboratory results reported in patent publication US20260142006A1, “APPARATUS AND METHODS FOR DETERMINING SENSITIVITY TO OSIMERTINIB” (Zephyr AI, Inc., priority 2022, published 2026).

Key:
NSCLC tumor PDX models = assay: tumor response (mRECIST) of treatment-naïve NSCLC patient-derived xenograft (PDX) models in mice; type: in vivo; conditions: 25 mg/kg/day for 3 weeks, NOD/SCID or BALB/c nude mice
From the text: FIG. 9 depicts a method for further validation of sensitivity predictions using patient-dervied xenograft (PDX) models (HuBase™, CrownBio®). Treatment naïve PDX tumors were subcutaneously implanted into female non-obese diabetic/severe combined immunodeficient (NOD/SCID) or BALB/c nude mice in triplicate for a total of 96 mice (n=48 treated; 48 vehicle-treated controls). Mice were assigned labels. After implanted tumors reached a size of 200 mm^3, mice were randomized into treatment and control groups. Treated mice were dosed with 25 mg/kg/day of osimertinib for 3 weeks. Changes in tumor volume were calculated. For each PDX model, tumor growth for treatment groups and control groups was assessed.
To validate the predictions of tumor sensitivity/insensitivity, as described above, data were acquired using treatment-naïve NSCLC tumor (patient-derived xenograft) PDX models available via HuBase™ (CrownBio®, an online database offering complete genomic annotation of the PDX models).
The current FDA label for osimertinib (FIG. 7) was used to assign PDX tumors to “FDA ON” or “FDA OFF” label groups based on the presence or absence of DNA alterations indicated for this drug (i.e., L858R mutation, T790M mutation, or exon 19 deletion). PDX tumors were also assigned label groups based on sensitivity predictions, as described above. Tumors labeled “Zephyr ON” included those that were predicted to be osimertinib-sensitive and samples labeled “Zephyr OFF” include those predicted to be osimertinib-insensitive. PDX models were then divided into four cohorts: FDA ON/ZEPHYR ON; FDA OFF/ZEPHYR ON; FDA ON/ZEPHYR OFF; and FDA OFF/ZEPHYR OFF.
Treatment naïve PDX tumors were subcutaneously implanted into female NOD/SCID or BALB/c nude mice in triplicate for a total of 96 mice (n=48 treated; 48 vehicle-treated controls). After implanted tumors reached a size of 200 mm^3, mice were randomized into treatment and control groups. Treated mice were dosed with 25 mg/kg/day of osimertinib for 3 weeks. Changes in tumor volume were calculated as previously described, e.g., in Gao et al., Nat. Med. 21, 1318-1325 (2015). For each PDX model, tumor growth for treatment groups and control groups (vehicle only) was assessed.
This final cohort represents an expansion of the patient population that can be successfully treated with osimertinib that is not captured by the existing FDA label.

cancer cell lines = assay: area under the drug response curve (AUC) of cancer cell lines exposed to osimertinib; type: cell-based; conditions: AUC of 1 = growth equal to growth without osimertinib
From the text: FIG. 4D depicts a boxplot of area under the drug response curve values for cell lines partitioned into a first group (sensitive) and the second group (non-sensitive) of cancer cell lines, by a machine learning model disclosed herein.
FIG. 4D depicts a graph of a box and whisker plot of area under the drug response curve (AUC) values for the first group (sensitive) and the second group (non-sensitive) of cancer cell lines. […] Furthermore, instead of generating the machine learning model wherein the model learns a point estimate for each of the parameters of the partitioning matrix (e.g., two or more genes), the machine learning model may be generated in a Bayesian context, wherein the machine learning model learns the posterior parameter distribution for the parameters of the partitioning matrix, the posterior parameter distribution may be approximately gaussian. For example, when the parameters of the partitioning matrix include 7 distinct genes, the machine learning model may learn the posterior parameter distribution for 8 different parameters (e.g., 7 genes plus an intercept term). In some embodiments, the posterior parameter distribution may have a confidence region of about 90%. The graphical representation of the confidence region of the posterior parameter distribution may depict ellipse enclosing a high-density region.

NSCLC = assay: overall survival of osimertinib-treated NSCLC patients (AACR Project GENIE cohort), predicted sensitive vs. less sensitive; type: in vivo, human; conditions: 334 osimertinib-treated patients
From the text: FIG. 8 depicts a Kaplan-Meier plot showing corresponding overall survival (OS) measurements of patients predicted, according to methods of the present disclosure, to be sensitive vs. insensitive to ismertinib. NSCLC patients predicted to be sensitive experienced a 35-month increased median OS than the predicted less sensitive group (log-rank test p-value<10-5; HR=1.57 (1.43-1.78, 95% CI)).
A clinicogenomics cohort from AACR Project GENIE, which included 334 patients treated with osimertinib, was used to validate the predictive ability of the methods disclosed herein. Data obtained in real-world settings were used to assign drug sensitivity predictions to individual patients in a RWD cohort of NSCLC patients treated with osimertinib. FIG. 8, a Kaplan-Meier plot, depicts overall survival (OS) measurements corresponding to patients predicted to be sensitive vs. insensitive. NSCLC patients predicted to be sensitive experienced a 35-month increased median OS than the NSCLC patients predicted to be less sensitive (log-rank test p-value<10-5; HR=1.57 (1.43-1.78, 95% CI)).

## C=CC(=O)Nc1cc(Nc2nccc(-c3cn(C)c4ccccc34)n2)c(OC)cc1N(C)CCN(C)C [osimertinib]
NSCLC tumor PDX models; FDA OFF/ZEPHYR OFF cohort
  tumor response by mRECIST: disease progression
NSCLC tumor PDX models; FDA OFF/ZEPHYR ON cohort (no on-label EGFR alteration, predicted sensitive)
  tumor response by mRECIST: partial to complete response
NSCLC tumor PDX models; FDA ON/ZEPHYR OFF cohort
  tumor response by mRECIST: a mix of complete responses and disease progression
NSCLC tumor PDX models; FDA ON/ZEPHYR ON cohort
  tumor response by mRECIST: complete response
Cancer cell lines; first group (predicted sensitive) of cancer cell lines
  average AUC (area under the drug response curve): about 0.9
Cancer cell lines; second group (predicted non-sensitive) of cancer cell lines
  average AUC (area under the drug response curve): about 0.95
NSCLC; real-world data, log-rank test p-value<10-5
  increase in median overall survival (OS), predicted sensitive vs. predicted less sensitive: 35 month
NSCLC; 95% CI in brackets
  hazard ratio (HR) for overall survival: 1.57 (1.43-1.78, 95% CI)
